This is an account of results in US9828379B2 (priority 2013, dated 2017).

For orientation: IC50 means the concentration needed to halve the response being measured. By inhibition is commonly meant how much of the control response was suppressed.

Like-named read-outs stand apart in the source and are kept apart here. Where only a bound is given, the exact number is not on record here.

The target of assay [1] is T1, ABHD6 (Mus musculus, UniProt Q8R2Y0).
T1 sequence (Q8R2Y0 1-336): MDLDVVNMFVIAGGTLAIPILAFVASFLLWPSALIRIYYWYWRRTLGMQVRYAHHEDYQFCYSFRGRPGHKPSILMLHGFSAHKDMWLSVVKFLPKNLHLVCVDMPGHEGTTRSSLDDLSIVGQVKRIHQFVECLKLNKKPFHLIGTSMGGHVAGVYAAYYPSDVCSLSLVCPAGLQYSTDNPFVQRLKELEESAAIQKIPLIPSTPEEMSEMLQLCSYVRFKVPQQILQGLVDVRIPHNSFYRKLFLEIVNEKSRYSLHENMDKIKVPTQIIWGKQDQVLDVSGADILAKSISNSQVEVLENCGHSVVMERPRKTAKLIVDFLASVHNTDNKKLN
The assay is described as follows: biochemical. As to conditions: in vitro competitive ABPP.

The target in assay [2] is T2, FAAH (Mus musculus, UniProt O08914).
T2 sequence (O08914 1-579): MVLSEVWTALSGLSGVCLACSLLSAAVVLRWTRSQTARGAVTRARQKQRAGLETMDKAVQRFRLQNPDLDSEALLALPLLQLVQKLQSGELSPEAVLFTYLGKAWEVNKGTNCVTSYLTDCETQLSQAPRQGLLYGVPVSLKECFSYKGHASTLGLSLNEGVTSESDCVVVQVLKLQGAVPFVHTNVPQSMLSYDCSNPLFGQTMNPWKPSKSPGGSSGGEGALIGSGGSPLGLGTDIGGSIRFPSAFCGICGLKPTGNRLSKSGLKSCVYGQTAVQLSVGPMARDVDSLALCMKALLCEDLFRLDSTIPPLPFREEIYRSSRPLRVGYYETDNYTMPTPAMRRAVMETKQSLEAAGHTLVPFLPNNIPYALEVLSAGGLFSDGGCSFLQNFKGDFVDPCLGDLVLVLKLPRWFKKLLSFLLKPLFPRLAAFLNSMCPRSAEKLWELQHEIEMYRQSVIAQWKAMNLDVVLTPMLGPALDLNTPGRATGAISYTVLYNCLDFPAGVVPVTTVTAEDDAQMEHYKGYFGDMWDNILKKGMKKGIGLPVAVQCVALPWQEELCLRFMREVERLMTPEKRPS
The assay is described as follows: biochemical. As to conditions: in vitro competitive ABPP.

For assay [3], the target named is T3, MAGL (Mus musculus, UniProt O35678).
T3 sequence (O35678 1-303): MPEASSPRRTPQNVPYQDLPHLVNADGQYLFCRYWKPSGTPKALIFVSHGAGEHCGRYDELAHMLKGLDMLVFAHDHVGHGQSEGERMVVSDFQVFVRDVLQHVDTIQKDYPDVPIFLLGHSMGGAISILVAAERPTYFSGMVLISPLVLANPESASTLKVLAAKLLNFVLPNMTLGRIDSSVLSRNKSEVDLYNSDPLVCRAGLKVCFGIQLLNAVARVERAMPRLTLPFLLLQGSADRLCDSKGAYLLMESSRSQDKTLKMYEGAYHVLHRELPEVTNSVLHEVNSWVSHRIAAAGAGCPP
Kind of assay: biochemical.

Assay [4] has as its target T1, ABHD6. Kind of assay: In vitro competitive activity-based protein profiling (Table 2, % inhibition at 1 μM). The assay is classed as biochemical. As to conditions: read-out: % Inhibition at 1 μM ABHD6.
The target in assay [5] is T2, FAAH. The assay is described as above. To be noted: read-out: % Inhibition at 1 μM FAAH. The assay is classed as biochemical.
In assay [6] the target is T3, MAGL. The assay is described as above. The assay is classed as biochemical. As to conditions: read-out: % Inhibition at 1 μM MAGL. As for the experimental part: After 30 min, FP—Rh (1.0 μL, 50 μM in DMSO) was added and the mixture was incubated for another 30 min at 37° C. Reactions were quenched with SDS loading buffer (50 μL-4×) and run on SDS-PAGE.
Cell lysates were diluted with mock proteomes for use in competitive ABPP experiments.

Setting [7] is: mouse, in vitro competitive ABPP, read-out: Mouse (IC50 value, nM) MAGL.

For `O=C(OC(C(F)(F)F)C(F)(F)F)N1CC2CN(Cc3cccc(Cl)c3N3C4CCC3COC4)CC2C1` (stereo not drawn) [Example 43, 1,1,1,3,3,3-Hexafluoropropan-2-yl 5-[(3-chloro-2-[3-oxa-8-azabicyclo[3.2.1]octan-8-yl]phenyl)methyl]-octahydropyrrolo[3,4-c]pyrrole-2-carboxylate], the IC50 is 1000 to 10000 nM in assay [1], 1000 to 10000 nM in assay [2] and less than 100 nM in assay [3] (setting [7]). Besides, the inhibition at 1 µM in assay [4] is less than 25%; in assay [5], less than 25%; in assay [6] it was more than 75%.
On to `CCn1cc(CN2CC3CN(C(=O)OC(C(F)(F)F)C(F)(F)F)CC3C2)c(-c2ccncc2)n1` (stereo not drawn) [Example 72, 1,1,1,3,3,3-Hexafluoropropan-2-yl 5-[[1-ethyl-3-(pyridin-4-yl)-1H-pyrazol-4-yl]methyl]-octahydropyrrolo[3,4-c]pyrrole-2-carboxylate], for which the IC50 in assay [1] is 1000 to 10000 nM; in assay [2], 1000 to 10000 nM; in assay [3] (setting [7]), less than 100 nM. For the same compound, the inhibition at 1 µM in assay [4] is 25 to 75%; in assay [5], less than 25%; in assay [6] it was more than 75%.
Turning to `O=C(OC(C(F)(F)F)C(F)(F)F)N1CC2CN(Cc3cc(CN4CCCCC4)cc(OC(F)(F)F)c3)CC2C1` (stereo not drawn) [Example 184, 1,1,1,3,3,3-hexafluoropropan-2-yl 5-(3-(piperidin-1-ylmethyl)-5-(trifluoromethoxy)benzyl)hexahydropyrrolo[3,4-c]pyrrole-2(1H)-carboxylate], the results for the IC50 in assay [1], in assay [2] and in assay [3] (setting [7]) were 1000 to 10000 nM, 1000 to 10000 nM and 100 to 1000 nM, respectively. The figures for the inhibition at 1 µM in assay [4], in assay [5] and in assay [6] were less than 25%, less than 25% and more than 75%, respectively.
Take `O=C(OC(C(F)(F)F)C(F)(F)F)N1CC2CN(Cc3cc(CN4CCCC4)ccc3OC(F)(F)F)CC2C1` (stereo not drawn) [Example 190, 1,1,1,3,3,3-hexafluoropropan-2-yl 5-(5-(pyrrolidin-1-ylmethyl)-2-(trifluoromethoxy)benzyl)hexahydropyrrolo[3,4-c]pyrrole-2(1H)-carboxylate]: the half-maximal inhibitory concentration (IC50) in assay [1] fell in the range of 1000 to 10000 nM; in assay [2], 1000 to 10000 nM; in assay [3] (setting [7]), 100 to 1000 nM. Also, the inhibition at 1 µM in assay [4] was less than 25%; in assay [5] it was less than 25%; in assay [6], more than 75%.
Consider `Cc1c(CN2CC3CN(C(=O)OC(C(F)(F)F)C(F)(F)F)CC3C2)cccc1N1CCN(S(C)(=O)=O)CC1` (stereo not drawn) [Example 150, 1,1,1,3,3,3-hexafluoropropan-2-yl 5-[[3-(4-methanesulfonylpiperazin-1-yl)-2-methylphenyl]methyl]-octahydropyrrolo[3,4-c]pyrrole-2-carboxylate], for which the IC50 in assay [1] is 1000 to 10000 nM; in assay [2], 1000 to 10000 nM; in assay [3] (setting [7]) it was less than 100 nM. Besides, the inhibition at 1 µM in assay [4] is less than 25%; in assay [5] it was 25 to 75%; in assay [6], more than 75%.
Regarding `Cc1c(CN2CC3CN(C(=O)OC(C(F)(F)F)C(F)(F)F)CC3C2)cccc1N1CCC2(CCOC2)C1` (stereo not drawn) [Example 46, 1,1,1,3,3,3-Hexafluoropropan-2-yl 5-[(2-methyl-3-[2-oxa-7-azaspiro[4.4]nonan-7-yl]phenyl)methyl]-octahydropyrrolo[3,4-c]pyrrole-2-carboxylate], the IC50 in assay [1] is 1000 to 10000 nM; in assay [2], 1000 to 10000 nM; in assay [3] (setting [7]), less than 100 nM. In addition, the inhibition at 1 µM in assay [4] is less than 25%; in assay [5] it was 25 to 75%; in assay [6], more than 75%.
On to `CC(=O)NC1CCN(c2cccc(CN3CC4CN(C(=O)OC(C(F)(F)F)C(F)(F)F)CC4C3)c2C)CC1` (stereo not drawn) [Example 151, 1,1,1,3,3,3-hexafluoropropan-2-yl 5-[[3-(4-acetamidopiperidin-1-yl)-2-methylphenyl]methyl]-octahydropyrrolo[3,4-c]pyrrole-2-carboxylate], for which the IC50 in assay [1] is 1000 to 10000 nM; in assay [2], 1000 to 10000 nM; in assay [3] (setting [7]) it was less than 100 nM. The figures for the inhibition at 1 µM in assay [4], in assay [5] and in assay [6] were 25 to 75%, less than 25% and more than 75%, respectively.
On to `Cc1c(CN2CC3CN(C(=O)OC(C(F)(F)F)C(F)(F)F)CC3C2)cccc1N1CCC(F)(F)CC1` (stereo not drawn) [Example 153, 1,1,1,3,3,3-hexafluoropropan-2-yl 5-[[3-(4,4-difluoropiperidin-1-yl)-2-methylphenyl]methyl]-octahydropyrrolo[3,4-c]pyrrole-2-carboxylate], for which the figures for the IC50 in assay [1], in assay [2] and in assay [3] (setting [7]) were more than 10000 nM, 1000 to 10000 nM and less than 100 nM, respectively. The results for the inhibition at 1 µM in assay [4], in assay [5] and in assay [6] were less than 25%, 25 to 75% and more than 75%, respectively.
On to `O=C(OC(C(F)(F)F)C(F)(F)F)N1CC2CN(Cc3ccc(Cl)cc3N3Cc4cccnc4C3)CC2C1` (stereo not drawn) [Example 32, 1,1,1,3,3,3-Hexafluoropropan-2-yl 5-[(4-chloro-2-[5H,6H,7H-pyrrolo[3,4-b]pyridin-6-yl]phenyl)methyl]-octahydropyrrolo[3,4-c]pyrrole-2-carboxylate], for which the values for the IC50 in assay [1], in assay [2] and in assay [3] (setting [7]) were 1000 to 10000 nM, 1000 to 10000 nM and less than 100 nM, respectively. For the same compound, the results for the inhibition at 1 µM in assay [4], in assay [5] and in assay [6] were 25 to 75%, 25 to 75% and more than 75%, respectively.
Turning to `O=C(OC(C(F)(F)F)C(F)(F)F)N1CC2CN(Cc3ccc(Cl)cc3N3CC4COCC4C3)CC2C1` (stereo not drawn) [Example 208, 1,1,1,3,3,3-hexafluoropropan-2-yl 5-(4-chloro-2-(tetrahydro-1H-furo[3,4-c]pyrrol-5(3H)-yl)benzyl)hexahydropyrrolo[3,4-c]pyrrole-2(1H)-carboxylate], the IC50 fell in the range of 1000 to 10000 nM in assay [1], 1000 to 10000 nM in assay [2] and 100 to 1000 nM in assay [3] (setting [7]). The inhibition at 1 µM is less than 25% in assay [4], less than 25% in assay [5] and more than 75% in assay [6].
Take `CCc1cc(CN2CC3CN(C(=O)OC(C(F)(F)F)C(F)(F)F)CC3C2)n(C2CCOCC2)n1` (stereo not drawn) [Example 156, 1,1,1,3,3,3-hexafluoropropan-2-yl 5-[[3-ethyl-1-(oxan-4-yl)-1H-pyrazol-5-yl]methyl]-octahydropyrrolo[3,4-c]pyrrole-2-carboxylate]: the IC50 was 1000 to 10000 nM in assay [1], 1000 to 10000 nM in assay [2] and less than 100 nM in assay [3] (setting [7]). Further, the inhibition at 1 µM in assay [4] was less than 25%; in assay [5], less than 25%; in assay [6] it was more than 75%.
With `O=C(ON1C(=O)CCC1=O)N1CC2CN(Cc3ccc(Cl)cc3N3CC4CCC(C3)O4)CC2C1` (stereo not drawn) [Example 81, 2,5-Dioxopyrrolidin-1-yl 5-(2-(8-oxa-3-azabicyclo[3.2.1]octan-3-yl)-4-chlorobenzyl)hexahydropyrrolo[3,4-c]pyrrole-2(1H)-carboxylate], the values for the IC50 in assay [1], in assay [2] and in assay [3] were 1000 to 10000 nM, 1000 to 10000 nM and 100 to 1000 nM, respectively. Further, the figures for the inhibition at 1 µM in assay [4], in assay [5] and in assay [6] were 25 to 75%, less than 25% and 25 to 75%, respectively.
`Cc1cccc(CN2CC3CN(C(=O)OC(C(F)(F)F)C(F)(F)F)CC3C2)c1N1CCCCC1` (stereo not drawn) [Example 30, 1,1,1,3,3,3-Hexafluoropropan-2-yl 5-[[3-methyl-2-(piperidin-1-yl)phenyl]methyl]-octahydropyrrolo[3,4-c]pyrrole-2-carboxylate]: the IC50 in assay [1] is 1000 to 10000 nM; in assay [2], more than 10000 nM; in assay [3] (setting [7]), 100 to 1000 nM. Moreover, the inhibition at 1 µM in assay [4] is less than 25%; in assay [5], less than 25%; in assay [6], more than 75%.
